Source: ChEMBL document CHEMBL3098081, “Synthesis and anticancer potential of benzothiazole linked phenylpyridopyrimidinones and their diones as mitochondrial apoptotic inducers” (Bioorg Med Chem Lett, 2014)

Key:
[1] = tested on: B16; assay: Cytotoxicity against mouse B16 cells after 48 hrs by MTT assay; format: functional, cell-based; conditions: B16, 48 h
[2] = Cytotoxicity against human ME180 cells after 48 hrs by MTT assay; format: functional, cell-based; conditions: ME-180, 48 h
[3] = tested on: DU-145; assay: Cytotoxicity against human DU145 cells after 48 hrs by MTT assay; format: functional, cell-based; conditions: DU-145, 48 h
[4] = tested on: MCF7; assay: cells; conditions: Homo sapiens, MCF7, 48 h
Description: Cytotoxicity against human MCF7 cells after 48 hrs by MTT assay

Compound	IC50 [1] [µM]	IC50 [2] [µM]	IC50 [3] [µM]	IC50 [4] [µM]
COc1cc(-n2c(=O)n(-c3nc4ccc([N+](=O)[O-])cc4s3)c(=O)c3cccnc32)cc(OC)c1OC	19.9	> 20	> 20	> 20
O=c1[nH]cc(F)c(=O)[nH]1 [FLUOROURACIL]	4.2	4.9	–	3.5
